Measured values from paper PMC12369021, “Biased Signaling and Its Role in the Genesis of Short- and Long-Acting β2‑Adrenoceptor Agonists” (Biochemistry, 2025).
Where two headings read alike, the source gives them in different places.

How the values were obtained:
[1] = target: T1, β2AR (Homo sapiens, UniProt P07550); assay: nanoBRET mGs protein recruitment assay in T-REx-293-β2AR-nLuc cells; assay type: cell-based; settings: for EC50: mean ± SEM
Target sequence in this assay (P07550 whole entry): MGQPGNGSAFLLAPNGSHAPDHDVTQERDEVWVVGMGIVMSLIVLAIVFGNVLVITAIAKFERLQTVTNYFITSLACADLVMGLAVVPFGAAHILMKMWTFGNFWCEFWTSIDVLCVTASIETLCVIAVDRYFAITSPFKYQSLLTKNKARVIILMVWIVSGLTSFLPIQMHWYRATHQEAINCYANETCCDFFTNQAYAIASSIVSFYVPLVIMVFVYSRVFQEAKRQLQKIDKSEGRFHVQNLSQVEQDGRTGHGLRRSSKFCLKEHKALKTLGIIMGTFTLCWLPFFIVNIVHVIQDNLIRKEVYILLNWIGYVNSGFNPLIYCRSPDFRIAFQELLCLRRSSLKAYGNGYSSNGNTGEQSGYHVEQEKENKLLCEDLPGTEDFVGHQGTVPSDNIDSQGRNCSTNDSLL

[2] = tested on: β2AR; settings: for log bias factor (mGs/Arr2): ΔΔlog(Emax/EC50) relative to reference formoterol, from peak responses
Procedure: To determine the relative effectiveness of the compounds to activate the different signaling pathways, the difference between the log(E max/EC50) values was calculated.
Using the estimates of agonist activity Δlog(E max/EC50) for the test and reference agonists, pathway log bias was calculated as follows: 3 ΔΔlog(Emax/EC50)=Δlog(Emax/EC50)P1−Δlog(Emax/EC50)P2 where pathway 1 (P1) is mGs-dependent recruitment and pathway 2 (P2) is β-arrestin2 recruitment. Bias factors were calculated by taking the antilog of the ΔΔlog(E max/EC50).
Error on the pathway bias was calculated using the following formula: 4 SEMΔΔlog(Emax/EC50)=SEMΔlog(Emax/EC50)P12+SEMΔlog(Emax/EC50)P22

[3] = target: T1, β2AR; assay: nanoBRET β-arrestin2 recruitment assay in T-REx-293-β2AR-nLuc cells; assay type: cell-based; settings: for EC50: mean ± SEM
Target sequence in this assay (P07550 whole entry): as above
Target sequence in this assay (P32121 whole entry partner): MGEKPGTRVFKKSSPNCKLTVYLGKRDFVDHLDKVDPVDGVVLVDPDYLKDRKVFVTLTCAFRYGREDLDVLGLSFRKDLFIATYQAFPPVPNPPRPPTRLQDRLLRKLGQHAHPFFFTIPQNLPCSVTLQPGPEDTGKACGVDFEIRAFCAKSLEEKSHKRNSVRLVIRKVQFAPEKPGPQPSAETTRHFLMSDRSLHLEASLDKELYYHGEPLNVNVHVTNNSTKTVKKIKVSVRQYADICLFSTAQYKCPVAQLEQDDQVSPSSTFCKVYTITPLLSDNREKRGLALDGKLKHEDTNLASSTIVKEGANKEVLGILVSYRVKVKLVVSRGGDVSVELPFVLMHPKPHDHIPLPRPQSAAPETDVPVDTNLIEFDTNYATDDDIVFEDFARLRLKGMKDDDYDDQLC

[4] = target: β2AR; settings: cited from earlier work
[5] = read-out: mGs Emax at room temperature
[6] = read-out: mGs Emax derived from AUC analysis
[7] = ΔΔlog(Emax/EC50) relative to formoterol, AUC-derived
[8] = read-out: β-arrestin2 Emax at room temperature
[9] = read-out: β-arrestin2 Emax derived from AUC analysis

Row | Emax ([1]; read-out: mGs E max) [%] | Emax [1, 5] [%] | Emax [1, 6] [%] | Emax [3, 8] [%] | Compound | Log Bias Factor (mGs/Arr2) from AUC analysis [2, 7] | log bias factor (mGs/Arr2) [2] | also measured
1 |  |  |  |  | C=CCc1ccccc1OCC(O)CNC(C)C (stereo not shown) [Alprenolol] |  |  | Ki [4]: 0.912 nM
2 |  |  |  |  | CC(C)(C)NCC(O)c1ccc(O)c(CO)c1 (stereo not shown) [Salbutamol] | 1.65 ± 0.06 | 1.42 ± 0.19 | 
3 |  |  |  |  | COc1ccc(CC(C)NCC(O)c2ccc(O)c(NC=O)c2)cc1 (stereo not shown) [Formoterol] |  | 0 ± 0.10 | 
4 | 97.8 ± 1.4 | 101 ± 2.8 | 93.9 ± 1.7 | 116 ± 1.7 | CCC(NC(C)C)C(O)c1ccc(O)c(O)c1 (stereo not shown) [Isoetharine] | 0.79 ± 0.06 | 0.59 ± 0.13 | EC50 ([1]; AUC analysis, 37 °C, read-out: mGs pEC50 derived from AUC analysis (converted)): 38 nM; EC50 ([1]; peak response at 30 min, 37 °C, read-out: mGs pEC50 (converted)): 61.7 nM; EC50 ([1]; room temperature, 3 observations, read-out: mGs pEC50 at room temperature (converted)): 13.5 nM; Ki [4]: 1580 nM; EC50 ([3]; AUC analysis, 37 °C, read-out: β-arrestin2 pEC50 derived from AUC analysis (converted)): 224 nM; EC50 ([3]; peak response, 37 °C, read-out: β-arrestin2 pEC50 (converted)): 417 nM; Emax ([3]; read-out: β-arrestin2 E max): 112 ± 5.9%; Emax [3, 9]: 103 ± 4.37%; EC50 ([3]; room temperature, 3 observations, read-out: β-arrestin2 pEC50 at room temperature (converted)): 209 nM
5 |  |  |  |  | OCc1cc(C(O)CNCCCCCCOCCCCc2ccccc2)ccc1O (stereo not shown) [Salmeterol] |  | 0.53 ± 0.15 | 
6 | 33.6 ± 0.6 | 41.9 ± 1.4 | 32.8 ± 0.4 | 8.8 ± 1 | CC(C)(C)NCC(O)c1ccccc1Cl (stereo not shown) [Tulobuterol] |  |  | 
7 |  |  |  |  | CC(C)NCC(O)c1ccc(O)c(O)c1 (stereo not shown) [Isoprenaline, isoprenaline] |  | 0.48 ± 0.14 | Log Bias Factor (mGs/Arr2) from AUC analysis [2]: 0.51 ± 0.07

Row | Compound | Emax ([1]; read-out: mGs E max) [%] | Emax [1, 5] [%] | Emax [1, 6] [%] | Emax [3, 8] [%] | Log Bias Factor (mGs/Arr2) from AUC analysis [2, 7] | log bias factor (mGs/Arr2) [2] | also measured
8 | CC(Cc1ccc(O)cc1)NCC(O)c1cc(O)cc(O)c1 (stereo not shown) [Fenoterol, fenoterol] | 77 ± 0.4 | 73.9 ± 2.1 | 76.7 ± 0.8 | 83.8 ± 7.1 | 0.37 ± 0.05 | 0.32 ± 0.11 | Emax ([3]; read-out: β-arrestin2 E max): 85 ± 2.5%; Emax [3, 9]: 93.6 ± 8.1%
